Assay results taken from patent US20140275259A1, “Direct Lipid to Membrane Drug Delivery” (APPLIED BIORESEARCH, INC., priority 2013, published 2014).
Like-named read-outs stand apart in the source and are kept apart here.

Key:
[1] = rat; for Halflife / Tmax: mean
[2] = aqueous composition containing MBK, pH 7.0 and pH 9.6, 5 hours
Procedure: Cells in the digestive track, such as CACO-2 cells are typically used to model absorption in the small intestine. CACO-2 cells, developed by the Sloan-Kettering Institute from human epithelial colorectal adenocarcinoma cells, are widely used to predict drug absorption. […] permeability assay (PAMPA) uses an artificial cell membrane to model drug permeability. In either test, the drug is dissolved in an aqueous solution mimicking the target gastric fluid. The fluid is contacted with the membrane, and the passage of the drug through the membrane over a period of time is used to assess permeability.
PAMPA measures how quickly the drug can exit a water-solvated environment and pass through a cell membrane. Since most drugs are hydrophobic, it is expected that there will be significant absorption by the cells lining the digestive tract.

in vivo = conditions: rat
[3] = dogs, rectal, aqueous solution; cited from earlier work
[4] = Group B, intravenous, 1.37 mg/kg

Compound	Halflife [1, 4]	Tmax [1, 4]	Tmax ([1]; Group C, rectal suppository, 213.5 mg/kg)	Halflife ([1]; Group C, rectal suppository, 213.5 mg/kg, terminal elimination phase not observed, calculation interpolated)	drug absorbed within eight hours ([1]; suppository with MBK as the excipient)	passage of drug through the artificial cell membrane (PAMPA) [2]	bioavailability at 8 hours (in vivo)	AUC (in vivo; 213.5 mg/kg)	AUC(0-inf) (in vivo; 213.5 mg/kg)	Cmax (in vivo; 213.5 mg/kg)	AUC (in vivo; iv, 1.37 mg/kg)	AUC(0-inf) (in vivo; iv, 1.37 mg/kg)	Cmax (in vivo; iv, 1.37 mg/kg)	absorption [3]
O=C([O-])CN(CCN(CC(=O)[O-])CC(=O)[O-])CC(=O)[O-].[Ca+2].[Na+].[Na+] [CaNa2EDTA, calcium disodium ethylenediaminetetraacetate]	1.50 h	4.98 min	25 min	8.20^1 Hour	over 36.3%	completely negative	36.3%	106 µg·h/mL	307 µg·h/mL	30.6 µg/mL	1.86 µg·h/mL	1.91 µg·h/mL	2.07 µg/mL	–
O=C(O)CN(CCN(CC(=O)O)CC(=O)O)CC(=O)O [EDTA]	–	–	–	–	–	–	–	–	–	–	–	–	–	~13%
